Patent US12109184B2, “Personalized methods of treating cancer” (CANCER RESEARCH TECHNOLOGY LIMITED, priority 2020, dated 2024)
Entries after “also recorded” stand apart in the source; their conditions may differ.

Experiments:
[1] = test system: HCT116, SW480, MDA-MB-231, and MIAPaCa-2 cells; details: exogenous GSH 5 mM
Procedure: HCT116, SW480, MDA-MB-468, MDA-MB-231, AsPC-1, BxPC-3, CFPAC-1, MIAPaCa-2, PANC-1, Panc10.05, SW1990, U-251, LN-18, LN-229, T98G, U-343, A-172 cells were used. Cell lines were authenticated using Short Tandem Repeat (STR) profiling and tested for mycoplasma. Colorectal and breast cancer cell lines were grown in Dulbecco's Modified Eagle Medium (DMEM), pancreatic ductal adenocarcinoma (PDAC) cell lines were grown in Roswell Park Memorial institute (RPMI) 1640. All cell lines were supplemented with penicillin-streptomycin, amphotericin, 2 mM L-glutamine, and 10% fetal bovine serum (FBS). Cells were kept at 37° C. in 5% CO2 in a humidified cell culture incubator. A formulated medium lacking cysteine, cystine, methionine, and serine was used as a base for creating experimental media. The base medium formulation contained 0.2 mM L-histidine, 0.4 mM L-isoleucine, 0.4 mM L-leucine, 0.4 mM L-lysine, 0.2 mM L-phenylalanine, 0.4 mM L-threonine, 0.08 mM L-tryptophan, 0.4 mM L-valine, 0.2 mM L-arginine, 2 mM L-glutamine, 0.2 mM L-tyrosine, 0.4 mM L-alanine, 0.3 mM L-proline, 0.15 mM L-glutamic acid, 0.1 mM L-aspartic acid, 0.2 mM L-asparagine, and 0.4 mM glycine. […]
Cells were seeded at 6×10^4 cells per well into 24-well plates (triplicate wells per condition) in the relevant complete medium and adhered for a full 24-hour period. […] DAPI-stained cell nuclei were detected via microscopy. […]

[2] = test system: MDA-MB-231 cells; experiment: Steady state metabolite measurements by LC-MS; assay type: cell-based
Procedure: Metabolomics experiments were performed as follows. Cells were seeded into 6-well plates (5×10^5-1.5×10^6 cells/mL, depending on time-course, triplicate wells per condition) in complete medium and adhered overnight. Cells were washed with PBS, and the relevant experimental media were added for the stated times. Duplicate wells were used for cell counting. Cell counts were used to normalize the volume of lysis solvent prior to metabolite extractions (2×10^6 cells/mL). Cells were washed quickly in PBS, then ice-cold lysis solvent (methanol 50%, acetonitrile 30%, water 20%) was added, and cells were scraped on ice. Lysates were transferred to 1.5 mL tubes on ice, vortexed, then spun by centrifugation at 15,000 rpm at 4° C. for 10 minutes. Supernatants were collected and stored at -80° C. for LC-MS analysis. Prepared samples were analyzed on an LC-MS platform consisting of an […] system and an ExactiveTM mass spectrometer. A Sequant® ZIC®-HILIC column (4.6 mm×150 mm, 3.5 μm) was used to separate the metabolites with the mobile phase using A=0.1% (v/v) formic acid in water and B=0.1% (v/v) formic acid in acetonitrile. A gradient program starting at 20% of A and linearly increasing to 80% at 30 min was used followed by washing (92% of A for 5 mins) and re-equilibration (20% of A for 10 min) steps. The total run time of the method was 45 min. The LC stream was desolvated and ionized in the HESI probe. The ExactiveTM mass spectrometer was operated in full scan mode over a mass range of 70-1,200 m/z at a resolution of 50,000 with polarity switching. The LC-MS raw data was converted into mzML files by using ProteoWizard and imported to MZMine 2.10 for peak extraction and sample alignment. An in-house database including all possible ^13C and ^15N isotopic m/z values of the relevant metabolites was used for the assignment of LCMS signals. Finally the peak areas were used for comparative quantification.

[3] = test system: breast, colorectal and pancreatic cancer cell lines; experiment: Cell counting in complete or cysteine-free medium, cell lines not given; assay type: cell-based; details: supplementation during cysteine starvation
Procedure: The base medium formulation contained 0.2 mM L-histidine, 0.4 mM L-isoleucine, 0.4 mM L-leucine, 0.4 mM L-lysine, 0.2 mM L-phenylalanine, 0.4 mM L-threonine, 0.08 mM L-tryptophan, 0.4 mM L-valine, 0.2 mM L-arginine, 2 mM L-glutamine, 0.2 mM L-tyrosine, 0.4 mM L-alanine, 0.3 mM L-proline, 0.15 mM L-glutamic acid, 0.1 mM L-aspartic acid, 0.2 mM L-asparagine, and 0.4 mM glycine.
DAPI-stained cell nuclei were detected via microscopy.
AMD1 inhibitor sardomozide/SAM486A, GPX4 inhibitor RSL3, and CSE inhibitor beta-cyano-L-alanine were used.
For experiments using spermine oxidase (SMOX) and polyamine oxidase (PAOX) inhibitors or MTOB, cells were pre-treated with stated concentrations for 16 hours in complete medium. After pre-treatment, cells were washed in PBS, and treatment was continued in complete or cysteine-free medium for stated times. After treatment was finished, cells were fixed and stained as described above. For experiments using MTA, polyamines, GPX4 and CSE inhibitors, treatment started at the same time as cysteine starvation. For experiments involving hypoxic conditions, cells were seeded in normoxic conditions and allowed to adhere for 24 hours before control and cysteine starvation medium was added and cells were immediately transferred either to a humidified cell culture incubator set to 37° C. in 20% O2 (normoxia), or a hypoxia chamber set to 37° C. in 1% O2 (hypoxia) for the stated times. Cells were fixed immediately and stained as described above.

[4] = test system: HCT116, SW480, MDA-MB-231 and MDA-MB-468 cells; experiment: Western blot of transsulfuration pathway enzyme expression; assay type: cell-based; details: medium lacking cysteine with 0.8 mM homocysteine, 24 hr
Text: Protein was extracted from whole cells by lysis in RIPA buffer supplemented with a protease and […] cocktail. Lysates were cleared using centrifugation, resolved on 4-12% bis-tris pre-cast gels, and transferred to nitrocellulose membranes. Primary antibodies used were MTAP, AMD1, ODC1, GPX4, AHCY, CBS, CSE, and actin as a loading control on the same blots. Secondary antibodies used were IRDye800CW anti-mouse, IRDye680RD anti-mouse, IRDye800CW anti-rabbit, and IRDye680RD anti-rabbit. Protein bands were detected and quantified using an infrared scanner and imaging software.

[5] = test system: SW480 and MDA-MB-231 cells; experiment: Cell counting, rescue by cysteine precursors during cysteine starvation; assay type: cell-based
Procedure: HCT116, SW480, MDA-MB-468, MDA-MB-231, AsPC-1, BxPC-3, CFPAC-1, MIAPaCa-2, PANC-1, Panc10.05, SW1990, U-251, LN-18, LN-229, T98G, U-343, A-172 cells were used. Cell lines were authenticated using Short Tandem Repeat (STR) profiling and tested for mycoplasma. Colorectal and breast cancer cell lines were grown in Dulbecco's Modified Eagle Medium (DMEM), pancreatic ductal adenocarcinoma (PDAC) cell lines were grown in Roswell Park Memorial institute (RPMI) 1640. All cell lines were supplemented with penicillin-streptomycin, amphotericin, 2 mM L-glutamine, and 10% fetal bovine serum (FBS). Cells were kept at 37° C. in 5% CO2 in a humidified cell culture incubator. A formulated medium lacking cysteine, cystine, methionine, and serine was used as a base for creating experimental media. The base medium formulation contained 0.2 mM L-histidine, 0.4 mM L-isoleucine, 0.4 mM L-leucine, 0.4 mM L-lysine, 0.2 mM L-phenylalanine, 0.4 mM L-threonine, 0.08 mM L-tryptophan, 0.4 mM L-valine, 0.2 mM L-arginine, 2 mM L-glutamine, 0.2 mM L-tyrosine, 0.4 mM L-alanine, 0.3 mM L-proline, 0.15 mM L-glutamic acid, 0.1 mM L-aspartic acid, 0.2 mM L-asparagine, and 0.4 mM glycine. The base medium was supplemented with 10% dialyzed FBS, penicillin-streptomycin, and amphotericin. To ensure an adequate supply of vitamin B6 (a crucial co-factor for de novo cysteine synthesis), base medium was supplemented with additional 20 μM vitamin B6. The control experimental medium was the base medium supplemented with 0.4 mM L-cysteine, 0.2 mM L-methionine, and 0.4 mM L-serine. The cysteine starvation (−Cys) experimental medium was base medium supplemented with 0.2 mM L-methionine and 0.4 mM L-serine.
Cells were seeded at 6×10^4 cells per well into 24-well plates (triplicate wells per condition) in the relevant complete medium and adhered for a full 24-hour period. A ‘time-0’ plate was included to record the starting cell number to calculate relative cell numbers. Cells were washed once with phosphate-buffered saline (PBS) before receiving experimental medium containing or lacking the specified amino acids, metabolites, or drugs. At the stated time-points the medium was removed, cells were fixed in a 4% formalin-PBS solution. Cells were then washed and stored in PBS before staining with 4′,6-diamidino-2-phenylindole (DAPI)-Triton™ X100-PBS solution for 1 hour, followed by storage in PBS at 4° C. until further analysis. DAPI-stained cell nuclei were detected via microscopy.
Homocysteine, cystathionine, glutathione, putrescine, spermine, spermidine, GPX4 inhibitor ML210, SMOX inhibitor MDL 72527, PAOX inhibitor diminazene aceturate, ferrostatin-1 and erastin were used. AMD1 inhibitor sardomozide/SAM486A, GPX4 inhibitor RSL3, and CSE inhibitor beta-cyano-L-alanine were used. […]

[6] = medium lacking cysteine with 5 mM glutathione
[7] = medium lacking cysteine, supplement 0.2 mM

Row | Structure (SMILES) | cell death and proliferation during cysteine starvation [1] | intracellular GSH levels [2, 6] | intracellular cysteine and γ-glutamylcysteine levels [2, 6] | rescue from cysteine starvation-induced cell death (summary in discussion) [3] | transsulfuration pathway enzyme expression beyond starvation alone [4] | rescue of survival/proliferation during cysteine starvation ([5]; supplement at 0.2 mM) | restoration of proliferation during cysteine starvation ([5]; supplement at 0.8 mM) | intracellular cysteine levels [2, 7] | intracellular homocysteine and cystathionine levels [2, 7] | intracellular γ-glutamylcysteine and GSH levels [2, 7] | intracellular cysteine levels ([2]; medium lacking cysteine, supplement 0.8 mM, 8 h)
1 | N[C@@H](CCC(=O)N[C@@H](CS)C(=O)NCC(=O)O)C(=O)O [GSH, glutathione] | prevented cell death and restored proliferation | fully restored | partial rescue |  |  |  |  |  |  |  | 
2 | N[C@@H](CCS)C(=O)O [homocysteine] |  |  |  | rescued from starvation-induced cell death; also recorded: able to rescue cells from cysteine starvation | little impact | substantial rescue | further able to restore proliferation; also recorded: restored proliferation and increased cell survival | moderate increases | significantly increased | more marked increases | significant increase
